Results from patent US6749336B2, “Ionic liquid temperature sensor” (priority 2002, dated 2004).

system: not listed separately; assay: decomposition temperature of ionic liquids; assay type: physicochemical; details: 1-alkyl-pyridinium ionic liquids, Table 3, citation not given

Row | Structure (SMILES) | Decomposition Temperature
1 | CCCC[n+]1cccc(C)c1.F[P-](F)(F)(F)(F)F [[1-butyl-3-methylpyridinium] [PF6]] | 347 °C
2 | CCCC[n+]1ccc(C)cc1.[Cl-] [[1-butyl-4-methylpyridinium] Cl] | 214 °C
3 | CCCCc1ccc[nH+]c1.F[P-](F)(F)(F)(F)F [[3-n-butyl-pyridinium] [PF6]] | 125-444 °C
4 | F[P-](F)(F)(F)(F)F.c1ccc(CCCc2cc[nH+]cc2)cc1 [[4-phenylpropyl-pyridinium] [PF6]] | 163-474 °C
5 | CCCCCC[n+]1ccc(C)cc1.[Cl-] [[1-hexyl-4-methylpyridinium] Cl] | 218 °C
6 | CCCC[n+]1ccc(C)cc1.F[P-](F)(F)(F)(F)F [[1-butyl-4-methylpyridinium] [PF6]] | 358 °C
7 | CCCC[n+]1ccc(C)cc1.F[B-](F)(F)F [[1-butyl-4-methylpyridinium] [BF4]] | 332 °C

system: rats; assay: not given; details: acute toxicity; cited from earlier work

Row | Structure (SMILES) | LD50
8 | CCCCCCOCn1cc[n+](C)c1.F[B-](F)(F)F [1-hexyloxymethyl-3-methylimidazolium tetrafluoroborate] | 1400 mg/kg

system: not given; assay: not given; details: 1-alkyl-3-methylimidazolium ionic liquids, Table 2, literature citations a-g; cited from earlier work

Row | Structure (SMILES) | Decomposition Temperature
9 | CCCCn1cc[n+](C)c1.F[P-](F)(F)(F)(F)F [[C4mim] [PF6]] | 349 °C
10 | CCCCCCn1cc[n+](C)c1.F[P-](F)(F)(F)(F)F [[C6mim] [PF6]] | 417 °C
11 | CCCCn1cc[n+](C)c1.[I-] [[C4mim] I] | 265 °C
12 | CCCCCCCCn1cc[n+](C)c1.[Cl-] [[C8mim] Cl] | 243 °C
13 | CCC[n+]1ccn(C)c1.[Cl-] [[C3mim] Cl] | 282 °C
14 | CCCCCCn1cc[n+](C)c1.[Cl-] [[C6mim] Cl] | 253 °C
15 | CCCn1cc[n+](C)c1.F[P-](F)(F)(F)(F)F [[C3mim] [PF6]] | 335 °C
16 | CCCCn1cc[n+](C)c1.[Cl-] [[C4mim] Cl] | 254 °C
